Here are results for eight compounds from patent publication US20260109712A1, “RIFAMYCINS FOR NONTUBERCULOUS MYCOBACTERIA” (priority 2022, published 2026).

Converted amounts (≈) assume the structure as drawn.

The subject of one data set is Δarr M. abscessus. Put plainly: MIC assay, isogenic arr-deleted strain. The class given is cell-based, Mycobacterium abscessus. The note with it: Table 10. In short, it runs like this: (§1)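 Two-fold, ten-point dilutions in 7H9 with 2% DMSO; mid-log culture diluted to OD600=0.1 (1×10^7 CFU/mL). Incubated 3 days at 37 °C, shaking 110 RPM; growth = Day 3 minus Day 0 OD600, expressed as percentage of drug-free growth and plotted against concentration. Two biological replicates.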

In another data set the test system is M. abscessus ATCC 19977. Put plainly: MIC assay in 96-well plate format, wild-type strain. It counts as cell-based, Mycobacterium abscessus. The following applies: Table 10. A digest of the protocol: as §1
Data set [1] in a line: Plasma protein binding assay (rapid equilibrium dialysis). The class given is in vitro ADME. In short, it runs like this: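 Plasma was spiked to 10,000 ng/mL compound and dialysed against PBS by rapid equilibrium dialysis for 4 h at 37° C with shaking at 300 RPM. Plasma and buffer aliquots were matrix-matched 1:1 […] and quantified by LC-MS/MS.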
In general terms: In equilibrium dialysis only unbound substance equilibrates across the membrane.

The subject of the next data set is Mycobacterium abscessus. Put plainly: MIC against Mycobacterium abscessus (strain not given). The class given is cell-based. The note with it: Table 13; read-out: Mab MIC.

The term MIC denotes the least concentration at which growth counts as inhibited. With `COc1ccc(C(=O)O[C@H]2[C@H](C)[C@H](O)[C@H](C)[C@@H](O)[C@@H](C)/C=C/C=C(\C)C(=O)NC3=C4NC5(CCN(CC(C)C)CC5)N=C4c4c(c(O)c(C)c5c4C(=O)[C@@](C)(O/C=C/[C@H](OC)[C@H]2C)O5)C3=O)cc1` [UMN10], the MICΔorr against Δarr M. abscessus was 0.065 µM. The MICWT with M. abscessus ATCC 19977 came to 0.06 µM. Besides, in data set [1], the ƒu was found to be 0.02% and the plasma unbound fraction stood at 0%. Also, in the data set with Mycobacterium abscessus, the minimal inhibitory concentration (MIC) was 0.06 µM (≈ 0.0563 µg/mL).

In the data set on Δarr M. abscessus, `CO[C@H]1/C=C/O[C@@]2(C)Oc3c(C)c(O)c4c(c3C2=O)C2=NC3(CCN(CC(C)C)CC3)NC2=C(NC(=O)/C(C)=C/C=C/[C@H](C)[C@H](O)[C@@H](C)[C@@H](O)[C@@H](C)[C@H](OC(=O)c2ccc(F)cc2)[C@@H]1C)C4=O` [UMN11] registered an MICΔorr of 0.069 µM. Also, in the data set on M. abscessus ATCC 19977, the MICWT came to 0.13 µM. In data set [1], the ƒu stood at 0.02% and the plasma unbound fraction worked out at 0.02%. Moreover, the MIC in the data set with Mycobacterium abscessus stood at 0.13 µM (≈ 0.121 µg/mL).

In the case of `CO[C@H]1/C=C/O[C@@]2(C)Oc3c(C)c(O)c4c(c3C2=O)C2=NC3(CCN(CC(C)C)CC3)NC2=C(NC(=O)/C(C)=C/C=C/[C@H](C)[C@H](O)[C@@H](C)[C@@H](O)[C@@H](C)[C@H](OC(=O)c2ccc(Cl)cc2)[C@@H]1C)C4=O` [UMN12], the MICΔorr against Δarr M. abscessus turned out to be 0.22 µM. For the same compound, the MICWT with M. abscessus ATCC 19977 turned out to be 0.13 µM. In data set [1], the ƒu was 0.01% and the plasma unbound fraction is on record as 0.01%. For the same compound, the minimum inhibitory concentration (MIC) in the data set with Mycobacterium abscessus was 0.13 µM (≈ 0.123 µg/mL).

Turning to `CO[C@H]1/C=C/O[C@@]2(C)Oc3c(C)c(O)c4c(c3C2=O)C2=NC3(CCN(CC(C)C)CC3)NC2=C(NC(=O)/C(C)=C/C=C/[C@H](C)[C@H](O)[C@@H](C)[C@@H](O)[C@@H](C)[C@H](OC(=O)c2ccc(C(F)(F)F)cc2)[C@@H]1C)C4=O` [UMN13], the MICΔorr in the data set on Δarr M. abscessus was 0.66 µM. Also, the MICWT in the data set with M. abscessus ATCC 19977 is 0.24 µM. In data set [1], the ƒu is listed as 0% and the plasma unbound fraction amounted to 0%. Moreover, the MIC in the data set on Mycobacterium abscessus amounted to 0.24 µM (≈ 0.235 µg/mL).

`CO[C@H]1/C=C/O[C@@]2(C)Oc3c(C)c(O)c4c(c3C2=O)C2=NC3(CCN(CC(C)C)CC3)NC2=C(NC(=O)/C(C)=C/C=C/[C@H](C)[C@H](O)[C@@H](C)[C@@H](O)[C@@H](C)[C@H](OC(=O)c2cccc(-c3ccccc3)c2)[C@@H]1C)C4=O` [UMN18]: in the data set with Δarr M. abscessus, the MICΔorr is 1.05 µM. Moreover, the MICWT in the data set with M. abscessus ATCC 19977 is 1.10 µM. In data set [1], the ƒu was 0.01% and the plasma unbound fraction turned out to be 0%. For the same compound, in the data set on Mycobacterium abscessus, the minimal inhibitory concentration (MIC) came out at 1.1 µM (≈ 1.08 µg/mL).

`CO[C@H]1/C=C/O[C@@]2(C)Oc3c(C)c(O)c4c(c3C2=O)C2=NC3(CCN(CC(C)C)CC3)NC2=C(NC(=O)/C(C)=C/C=C/[C@H](C)[C@H](O)[C@@H](C)[C@@H](O)[C@@H](C)[C@H](OC(=O)c2cccc(C(F)(F)F)c2)[C@@H]1C)C4=O` [UMN19] registered an MICΔorr against Δarr M. abscessus of 0.36 µM. Further, the MICWT in the data set on M. abscessus ATCC 19977 was 0.48 µM. In data set [1], this compound displayed a ƒu of 0% and a plasma unbound fraction of 0%. In the data set on Mycobacterium abscessus, the MIC turned out to be 0.48 µM (≈ 0.469 µg/mL).

In turn, `COc1cccc(C(=O)O[C@H]2[C@H](C)[C@H](O)[C@H](C)[C@@H](O)[C@@H](C)/C=C/C=C(\C)C(=O)NC3=C4NC5(CCN(CC(C)C)CC5)N=C4c4c(c(O)c(C)c5c4C(=O)[C@@](C)(O/C=C/[C@H](OC)[C@H]2C)O5)C3=O)c1` [UMN26] showed an MICΔorr against Δarr M. abscessus of 0.13 µM. In the data set with M. abscessus ATCC 19977, this compound returned an MICWT of 0.13 µM. In addition, in data set [1], the ƒu was 0.02% and the plasma unbound fraction is 0.02%. In the data set on Mycobacterium abscessus, the MIC was 0.13 µM (≈ 0.122 µg/mL).

In the case of `CO[C@H]1/C=C/O[C@@]2(C)Oc3c(C)c(O)c4c(c3C2=O)C2=NC3(CCN(CC(C)C)CC3)NC2=C(NC(=O)/C(C)=C/C=C/[C@H](C)[C@H](O)[C@@H](C)[C@@H](O)[C@@H](C)[C@H](OC(=O)c2cccc(Cl)c2)[C@@H]1C)C4=O` [UMN27], the MICΔorr with Δarr M. abscessus was found to be 0.13 µM. Moreover, the MICWT against M. abscessus ATCC 19977 was 0.14 µM. Also, in data set [1], the ƒu stood at 0% and the plasma unbound fraction turned out to be 0%. Also, the MIC with Mycobacterium abscessus worked out at 0.14 µM (≈ 0.132 µg/mL).
